ED50 data for two compounds are collected here from patent US4001424A, “1-Oxo-1H-naphtho [2,1-b] pyran derivatives for treating depression” (Carlo Erba S.p.A., priority 1973, dated 1977).

The structures appear in SMILES notation.

For test [1], the system named is reserpine-induced blepharospasm. As to the kind of experiment: Anti-reserpine activity: prevention of reserpine-induced blepharospasm. It counts as in vivo, mice. As to conditions: Mus musculus, 1 h; oral, 30 min before reserpine 2.5 mg/kg endoperitoneally; scored one hour after reserpine; dose reducing symptoms by 50% vs control. The text has this:
(§1) 1-oxo-1H-naphtho[2,1-b]pyran derivatives as well as the pharmaceutical compositions containing them, being the object of the present invention, are active on the central nervous system as antidepressive agents. The antidepressive activity of the compounds of the invention, evaluated in mice from the prevention of reserpine-induced blepharospasm and hypothermia, is shown in the following Table, where the antireserpine effect is indicated as ED50 values, that is, doses able to prevent reserpine-induced blepharospasm and hypothermia by reducing symptoms of 50% if compared with the values obtainable in control animals.
(§2) Reserpine was administered endoperitoneally at a dosage of 2.5 mg/kg, and the compounds tested were administered orally 30 minutes before administration of reserpine. Recording of blepharospasm (evaluated in scores according to the technique described by Rubin B. et al in J. Pharmacol. 120, 125, 1957) and measurement of body temperature (by means of a rectal thermocouple […]) were taken an hour, and respectively, four hours after the administration of reserpine. In particular, the compounds object of the present invention not only allow to obtain a lower general toxicity in comparison with standard antidepressive agents, but also a lower cardiac toxicity as well as the lack of peripheral atropine effects.

Test [2] relates to reserpine-induced hypothermia. Kind of test: Anti-reserpine activity: prevention of reserpine-induced hypothermia. It counts as in vivo, mice. Particulars: Mus musculus, 4 h; oral, 30 min before reserpine 2.5 mg/kg endoperitoneally; rectal temperature four hours after reserpine; dose reducing symptoms by 50% vs control.
Source text: as §1, §2

As for `CCN(C)c1cc(=O)c2c(ccc3ccccc32)o1` [1-oxo-3-(N-methyl-N-ethyl)amino-1H-naphtho[2,1-b]pyran], the values for the ED50 in test [1] and in test [2] were 4 mg/kg and 15 mg/kg, respectively.
Turning to `CN(C)c1cc(=O)c2c(ccc3ccccc32)o1` [1-oxo-3-dimethylamino-1H-naphtho[2,1-b]pyran], the results for the 50% effective dose (ED50) in test [1] and in test [2] were 8.7 mg/kg and 21 mg/kg, respectively.
